From ChEMBL document CHEMBL4819064, “Discovery of new pyrimidopyrrolizine/indolizine-based derivatives as P-glycoprotein inhibitors: Design, synthesis, cytotoxicity, and MDR reversal activities” (Eur J Med Chem, 2021) come the findings set out here.

In data set [1] the test system is MCF7. The data set can be described thus: Cell cycle arrest in human MCF7 cells assessed as accumulation at S phase at 0.250 uM incubated for 72 hrs by PI staining based flow cytometric analysis (reference value: […] +/- 2.6 %). Type of data set: functional. The settings on record: dose 0.25 µM. On the technique in general: In flow cytometry, cells or beads pass a laser one at a time.

Data set [2] has as its system MCF7. The data set can be described thus: Cell cycle arrest in human MCF7 cells assessed as accumulation at pre-G1 phase at 0.125 uM incubated for 72 hrs by PI staining based flow cytometric analysis (reference value: 1.6 +/- 0.2 %). Format: functional.
Data set [3] concerns MCF7. The data set can be described thus: Induction of apoptosis in human MCF7 cells assessed as necrotic cells at 0.5 uM after 72 hrs by Annexin V-FITC/propidium iodide staining-based flow cytometric analysis (reference value: 6.2 %). Format: functional.
Data set [4] has as its system NCI/ADR-RES. The data set can be described thus: Synergistic cytotoxicity against human MCF7/ADR cells assessed as combination index at 0.5 uM after 72 hrs in presence of 0.5 uM doxorubicin by MTT assay. Format: functional. (In general: Tetrazolium dyes change colour on reduction, which living cells bring about.)
Data set [5] concerns MCF7. The data set can be described thus: Induction of apoptosis in human MCF7 cells assessed as early apoptotic cells at 0.125 uM after 72 hrs by Annexin V-FITC/propidium iodide staining-based flow cytometric analysis (reference value: 4.6 %). Type of data set: functional.
Data set [6] addresses ATP-dependent translocase ABCB1 (Homo sapiens, UniProt P08183). The data set can be described thus: Inhibition of P-gp activity in human MCF7/ADR cells at 500 nM after 72 hrs by RT-PCR analysis relative to control. Type of data set: cell-based, NCI/ADR-RES. The settings on record: nci/adr-res, 72 h, 0.5 µM.
The subject of data set [7] is MCF7. The data set can be described thus: Induction of apoptosis in human MCF7 cells assessed as necrotic cells at 0.250 uM after 72 hrs by Annexin V-FITC/propidium iodide staining-based flow cytometric analysis (reference value: 6.2 %). Type of data set: functional. The note with it: dose 0.25 µM.
Data set [8] has as its system MCF7. The data set can be described thus: Cell cycle arrest in human MCF7 cells assessed as accumulation at G2/M phase at 0.125 uM incubated for […] staining based flow cytometric analysis (reference value: 15 +/- 1.5 %). Format: functional.
The subject of the next data set is MRC5. The data set can be described thus: Cytotoxicity against human MRC5 cells assessed as reduction in cell viability incubated for 72 hrs by MTT assay. The note with it: MRC5, 72 h.
Data set [9] deals with MCF7. The data set can be described thus: Induction of apoptosis in human MCF7 cells assessed as viable cells at 0.125 uM after 72 hrs by Annexin V-FITC/propidium iodide staining-based flow cytometric analysis (reference value: 86.4 %). Format: functional. The note with it: read-out: Activity.
The subject of data set [10] is NCI/ADR-RES. The data set can be described thus: Synergistic cytotoxicity against human MCF7/ADR cells assessed as combination index at 1 uM after 72 hrs in presence of 0.5 uM doxorubicin by MTT assay. Type of data set: functional.
For data set [11], the system named is NCI/ADR-RES. The data set can be described thus: Synergistic cytotoxicity against human MCF7/ADR cells assessed as combination index at 1 uM after 72 hrs in presence of 1 uM doxorubicin by MTT assay. Format: functional.
In the next data set the test system is HT-29. The data set can be described thus: Cytotoxicity against human HT29 cells assessed as reduction in cell viability incubated for 72 hrs by MTT assay. The note with it: HT-29, 72 h.

ATP-dependent translocase ABCB1, sequence (P08183 whole entry): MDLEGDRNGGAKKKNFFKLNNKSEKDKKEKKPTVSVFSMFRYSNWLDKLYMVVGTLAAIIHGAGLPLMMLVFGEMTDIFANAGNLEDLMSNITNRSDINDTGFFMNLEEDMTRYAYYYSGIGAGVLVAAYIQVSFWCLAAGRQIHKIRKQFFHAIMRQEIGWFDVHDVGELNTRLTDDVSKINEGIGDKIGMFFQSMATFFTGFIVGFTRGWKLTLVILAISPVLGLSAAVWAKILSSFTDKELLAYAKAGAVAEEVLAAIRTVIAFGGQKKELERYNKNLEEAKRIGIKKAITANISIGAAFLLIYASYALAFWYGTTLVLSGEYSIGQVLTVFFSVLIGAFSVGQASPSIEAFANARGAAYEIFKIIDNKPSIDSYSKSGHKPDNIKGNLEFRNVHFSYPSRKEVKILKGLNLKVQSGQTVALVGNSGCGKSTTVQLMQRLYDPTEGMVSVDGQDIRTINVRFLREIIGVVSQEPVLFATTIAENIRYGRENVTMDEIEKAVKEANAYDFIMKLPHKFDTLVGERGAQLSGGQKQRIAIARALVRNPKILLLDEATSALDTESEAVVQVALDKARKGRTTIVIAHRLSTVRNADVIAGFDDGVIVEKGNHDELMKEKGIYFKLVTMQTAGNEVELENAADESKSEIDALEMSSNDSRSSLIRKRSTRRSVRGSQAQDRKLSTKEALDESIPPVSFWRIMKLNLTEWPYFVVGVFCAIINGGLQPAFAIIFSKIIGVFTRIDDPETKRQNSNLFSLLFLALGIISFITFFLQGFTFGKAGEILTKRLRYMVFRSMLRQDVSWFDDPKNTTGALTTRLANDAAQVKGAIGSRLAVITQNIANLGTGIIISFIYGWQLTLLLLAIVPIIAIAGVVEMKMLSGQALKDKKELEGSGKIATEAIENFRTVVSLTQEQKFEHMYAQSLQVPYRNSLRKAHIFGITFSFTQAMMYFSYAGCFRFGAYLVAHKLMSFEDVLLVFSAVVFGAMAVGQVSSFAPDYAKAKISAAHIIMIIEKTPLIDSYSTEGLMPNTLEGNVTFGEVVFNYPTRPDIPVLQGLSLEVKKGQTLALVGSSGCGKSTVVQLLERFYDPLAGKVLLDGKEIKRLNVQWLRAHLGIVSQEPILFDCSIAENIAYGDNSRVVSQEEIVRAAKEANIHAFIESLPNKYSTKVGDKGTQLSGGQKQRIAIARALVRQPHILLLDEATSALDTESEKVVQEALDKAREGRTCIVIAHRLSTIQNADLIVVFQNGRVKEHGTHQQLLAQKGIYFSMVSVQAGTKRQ

As for `N#Cc1c2n(c3c(=O)n(-c4ccccc4)cnc13)CCCC2`, the Activity is listed as 5.5% with MCF7 [1]; 1.6% with MCF7 [2]; 4.8% with MCF7 [3]; 6.6% in the data set with MCF7 [5]; 10.7% with MCF7 [7]; 15.5% with MCF7 [8]. Further, the CI worked out at 1.7 with NCI/ADR-RES [4], 0.08 with NCI/ADR-RES [10] and 0.025 in the data set with NCI/ADR-RES [11]. In addition, the “inhibition (INH)” value in data set [6] was found to be 190%. Also, the values for the IC50 in the data set on MRC5 and with HT-29 were 1.45 µM and 1.07 µM, respectively. For the same compound, the viability at 0.125 µM in the data set on MCF7 [9] is 86.3%.

Broadly, the IC50 is the midpoint of a concentration-inhibition curve.
